Laboratory results from US6703412B1 (priority 2002, dated 2004).

Legend:
[1] = tested on: sleeplessness; experiment: Example 2: melatonin capsules for subjects who awake midway during normal sleep period; assay type: in vivo, human; conditions: 1.5 mg capsules after 15 minutes of trying to fall back asleep
Description: Subjects are those who awake at about midway during their normal sleep period and once awake have trouble falling back asleep.

[2] = tested on: sleeplessness; experiment: Example 1: melatonin capsules for subjects having difficulty falling asleep at normal bedtime; assay type: in vivo, human; conditions: 1.5 mg capsules after one hour of trying to fall asleep
[3] = 2-100 mg doses, man; cited from earlier work
[4] = tested on: mice; conditions: mice given 800 mg/kg; cited from earlier work

For `COc1ccc2[nH]cc(CCNC(C)=O)c2c1` [Melatonin, N-acetyl-5-methyoxytryptamine], the sleep maintenance [1] was “sleep through the remainder of the night”, the state on awakening [1] was “refreshed, and not sleepy or drowsy” and the “time to fall asleep” value [1] was no more than 20 min. For the same compound, the time until awakening [1] was 3 to 4 h, the sleep maintenance [2] was “sleep through the night” and the state on awakening [2] was “alert, without any decrement in faculties”. For the same compound, the “time to fall asleep” value [2] was no more than 20 min, the biological half-life [3] was 32-48 minutes and the death [4] was “failed to produce death”.
